These results are taken from PubChem BioAssay (NCI).

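Five concentrations, 48 hours, 96-well plates. GI50 is the concentration that inhibits growth by half. TGI is the concentration that stops growth completely.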

Among the test systems are ACHN renal; IGROV1 ovarian; SK-MEL-28 melanoma; MOLT-4 leukemia; COLO 205 colon; MALME-3M melanoma; NCI-H460 lung; M14 melanoma; HCC-2998 colon; A498 renal.
What all share (test): NCI-60 cell line screen, 48 h

Turning to `CN(C(=O)c1ccco1)C(=S)N1CCN(c2ccccc2)CC1`, the TGI in the assay with ACHN renal, in the assay on IGROV1 ovarian, with SK-MEL-28 melanoma, in the assay with MOLT-4 leukemia, in the assay on COLO 205 colon and with MALME-3M melanoma was greater than 100 µM each time. The TGI in the assay on NCI-H460 lung and in the assay with M14 melanoma was greater than 100 µM throughout.

Turning to `NC(=O)c1c(NC(=O)c2ccc3c(c2)OCO3)sc2c1CCC(=O)C2`, the GI50 in the assay with ACHN renal is 1.51 µM; in the assay on SK-MEL-28 melanoma it was 3 µM; in the assay with COLO 205 colon it was 2.49 µM; in the assay with MALME-3M melanoma, 2.04 µM; with HCC-2998 colon, 3.45 µM; in the assay with M14 melanoma, 0.59 µM. Besides, the TGI is 5.11 µM with ACHN renal; greater than 100 µM in the assay with SK-MEL-28 melanoma; 7.42 µM in the assay on COLO 205 colon; 4.67 µM with MALME-3M melanoma; greater than 100 µM in the assay on HCC-2998 colon; greater than 100 µM in the assay on M14 melanoma.

As to `C1=C2/CC[C@H](Sc3ccccc3)[C@H]2C2(CCCCC/1)OCCO2`, the TGI with ACHN renal was greater than 100 µM; in the assay on IGROV1 ovarian, greater than 100 µM; in the assay on SK-MEL-28 melanoma it was greater than 100 µM; in the assay with COLO 205 colon, 38.2 µM; in the assay with MALME-3M melanoma, 73.8 µM; with NCI-H460 lung, greater than 100 µM. Moreover, the values for the TGI in the assay on HCC-2998 colon and in the assay with M14 melanoma were 41.3 µM and 93 µM, respectively.

On to `Cc1ccc(Nc2nc(C)c(C(/C=C/c3ccc(/C=C/C(=N/NC(=O)C[n+]4ccccc4)c4sc(Nc5ccc(C)cc5[N+](=O)[O-])nc4C)cc3)=N\NC(=O)C[n+]3ccccc3)s2)c([N+](=O)[O-])c1`, for which the TGI in the assay with ACHN renal, in the assay with IGROV1 ovarian, in the assay with SK-MEL-28 melanoma, with MOLT-4 leukemia, in the assay with COLO 205 colon and with MALME-3M melanoma was greater than 100 µM in each case. The TGI with NCI-H460 lung, with HCC-2998 colon and with M14 melanoma was greater than 100 µM throughout.

For the molecule `O=C(Nc1ccc(Cl)c(Cl)c1)O/N=C\c1c(Cl)ccc([N+](=O)[O-])c1Cl`, the GI50 with ACHN renal is 1.65 µM; in the assay with IGROV1 ovarian, 2.08 µM; in the assay with SK-MEL-28 melanoma, 2.1 µM; in the assay on MOLT-4 leukemia it was 2.23 µM; with COLO 205 colon it was 2.4 µM; with NCI-H460 lung, 2.63 µM. For the same molecule, the GI50 with M14 melanoma is 2.44 µM; with A498 renal it was 10.6 µM. Besides, the TGI was 3.33 µM in the assay on ACHN renal; 4.57 µM with IGROV1 ovarian; 4.22 µM with SK-MEL-28 melanoma; 5.46 µM in the assay on MOLT-4 leukemia; 4.81 µM with COLO 205 colon; 7.68 µM with NCI-H460 lung. In addition, the TGI in the assay on M14 melanoma was found to be 8.18 µM; with A498 renal, 22.8 µM.

In the case of `CCSCCCN(CCCSCC)CCCSCC`, the TGI in the assay on IGROV1 ovarian, in the assay with SK-MEL-28 melanoma, in the assay on MOLT-4 leukemia, in the assay with COLO 205 colon, in the assay on NCI-H460 lung and in the assay with HCC-2998 colon was greater than 100 µM in each case. Further, in the assay with M14 melanoma, the TGI was greater than 100 µM.

As to `C[Si](C)(C)c1ccc(-c2sc(-c3ccc([Si](C)(C)C)s3)c3c2C[Si]2(C3)Cc3c(-c4ccc([Si](C)(C)C)s4)sc(-c4ccc([Si](C)(C)C)s4)c3C2)s1`, the TGI with ACHN renal, in the assay with IGROV1 ovarian, with SK-MEL-28 melanoma, in the assay on MOLT-4 leukemia, with COLO 205 colon and with MALME-3M melanoma was greater than 100 µM each time. For the same molecule, the TGI in the assay with NCI-H460 lung, in the assay on HCC-2998 colon and with M14 melanoma was greater than 100 µM in each case.

For the molecule `[N-]=[N+]=NC(CI)c1cn([C@H]2C[C@H](O)[C@@H](CO)O2)c(=O)[nH]c1=O` (stereo partly drawn), the TGI in the assay with ACHN renal, with IGROV1 ovarian, with SK-MEL-28 melanoma, in the assay on MOLT-4 leukemia, with COLO 205 colon and with MALME-3M melanoma was greater than 100 µM in each case. The TGI in the assay on NCI-H460 lung, in the assay with HCC-2998 colon and with M14 melanoma was greater than 100 µM each time.

With `COc1ccc(/C=C2\S/C(=N/Nc3nc(-c4ccccc4)cs3)NC2=O)cc1OC`, the TGI is greater than 100 µM in the assay with ACHN renal; 44.2 µM with IGROV1 ovarian; 69.9 µM with SK-MEL-28 melanoma; 20.6 µM in the assay with MOLT-4 leukemia; greater than 100 µM in the assay on COLO 205 colon; greater than 100 µM in the assay on NCI-H460 lung. Further, the TGI in the assay on HCC-2998 colon is 64.2 µM; in the assay on M14 melanoma it was greater than 100 µM.

On to `CCCOC(=O)N1CCN(/[N+]([O-])=N/Oc2ccc([N+](=O)[O-])cc2[N+](=O)[O-])CC1`, for which the GI50 was 1.84 µM with ACHN renal; 1.3 µM in the assay with IGROV1 ovarian; 6.04 µM in the assay on SK-MEL-28 melanoma; 2.35 µM with MOLT-4 leukemia; 2.59 µM in the assay with COLO 205 colon; 2.54 µM in the assay on NCI-H460 lung. The TGI with ACHN renal was 3.79 µM; in the assay with IGROV1 ovarian, 4.05 µM; in the assay with SK-MEL-28 melanoma, 39.4 µM; in the assay on MOLT-4 leukemia, greater than 100 µM; with COLO 205 colon, 6.21 µM; in the assay on NCI-H460 lung, 8.82 µM.
